Test results taken from paper PMC10743905, “Design, Synthesis, and In Vitro and In Vivo Bioactivity Studies of Hydrazide–Hydrazones of 2,4-Dihydroxybenzoic Acid” (International Journal of Molecular Sciences, 2023).
In brackets after ≈: the same amount, converted by molar mass. Like-named read-outs stand apart in the source and are kept apart here. Blank lines part the entries; values can stand above or below the compound they belong to.

Key:
[1] = test system: Bacillus subtilis ATCC 6633; test: Broth microdilution MIC/MBC; format: cell-based
From the text: Detailed procedures are presented in the Supplementary Materials. […]
(§1) In vitro antimicrobial activity assays - Methodology
(§2) The examined compounds 1 - 24 were screened in vitro for antibacterial and antifungal activities using the broth microdilution method according to procedure reported earlier by our research group and European Committee on Antimicrobial Susceptibility Testing (EUCAST) and Clinical and Laboratory Standards Institute (CLSI) guidelines against a panel of reference and clinical or saprophytic strains of microorganisms, in-cluding Gram-positive bacteria, Staphylococcus aureus ATCC 43300 (Methicillin Resistant S. aureus – MRSA), Staphylococcus aureus ATCC 29213 (Methicillin Susceptible S. aureus – MSSA), Staphylococcus epidermidis ATCC 12228, Enterococcus faecalis ATCC 29212, Micro-coccus luteus ATCC 10240, Bacillus subtilis ATCC 6633 and Bacillus cereus ATCC 10876), Gram-negative bacteria (Bordetella bronchiseptica ATCC 4617, Escherichia coli ATCC 25922, Klebsiella pneumoniae ATCC 13883, Proteus mirabilis ATCC 12453, Salmonella typhimurium ATCC 14028 and Pseudomonas aeruginosa ATCC 9027) and fungi belonging to yeasts (Can-dida albicans ATCC 10231, Candida albicans ATCC 2091, Candida parapsilosis ATCC 22019, Candida glabrata ATCC 90030 and Candida krusei ATCC 14243). The microorganisms be-longing to ATCC came from American Type Culture Collection, routinely used for the evaluation of antimicrobials. All the used microbial cultures were first subcultured on nu-trient agar or Sabouraud agar at 35°C for 18-24 h or 30°C for 24-48 h for bacteria and fungi, […]
(§3) The surface of Mueller-Hinton agar (for bacteria) and RPMI 1640 with MOPS (for fungi) were inoculated with the suspensions of bacterial or fungal species. Microbial suspensions were prepared in sterile saline with an optical density of McFarland standard scale 0.5.
(§4) Samples containing examined compounds were dissolved in dimethyl sulfoxide (DMSO).
(§5) Furthermore, bacterial and fungal suspensions were put onto Petri dishes with solid me-dia containing 2 mg/mL of the tested compounds followed incubation at 37°C for 24h and 30°C for 48h for bacteria and fungi, respectively. The inhibition of microbial growth was judged by comparison with a control culture prepared without any sample tested. Ciprof-loxacin, vancomycin, nitrofurantoin, cefuroxime, ampicillin or nystatin (Sigma) were used as a reference antibacterial or antifungal compounds, respectively.
(§6) Subsequently, the MIC (Minimal Inhibitory Concentration) of the compounds was ex-amined by the microdilution broth method, using their two-fold dilutions in Mueller- […]
(§7) Hinton broth or (for bacteria) and RPMI 1640 broth with MOPS (for fungi) prepared in 96-well polystyrene plates. Final concentrations of the compounds ranged from 1000 to 0.488 µg/ml. Microbial suspensions were prepared in 0.85% NaCl with an optical density of 0.5 McFarland standard. Next each bacterial or fungal suspension was added per each well containing broth and various concentrations of the examined compounds. After incuba-

[2] = test system: Micrococcus luteus ATCC 10240; test: Broth microdilution MIC/MBC; format: cell-based
From the text: as §1
as §2, with “antimicrobials.” for “antimicrobials. All the used microbial cultures were first subcultured on nu-trient agar or Sabouraud agar at 35°C for 18-24 h or 30°C for 24-48 h for bacteria and fungi,”
(§8) Samples containing examined compounds were dissolved in dimethyl sulfoxide (DMSO). […]
as §6, §7

[3] = test system: Staphylococcus epidermidis ATCC 12228; test: Broth microdilution MIC/MBC; format: cell-based; settings: ATCC12228, read-out: MIC
From the text: as §1
as §2, with “antimicrobials.” for “antimicrobials. All the used microbial cultures were first subcultured on nu-trient agar or Sabouraud agar at 35°C for 18-24 h or 30°C for 24-48 h for bacteria and fungi,”
as §8, §6, §7

[4] = test system: Bacillus cereus ATCC 10876; test: Broth microdilution MIC/MBC; format: cell-based
From the text: as §1, §2, §3, §4, §5, §6, §7

[5] = test system: Salmonella typhimurium ATCC 14028; test: Broth microdilution MIC/MBC; format: cell-based
From the text: as §1
as §2, with “antimicrobials.” for “antimicrobials. All the used microbial cultures were first subcultured on nu-trient agar or Sabouraud agar at 35°C for 18-24 h or 30°C for 24-48 h for bacteria and fungi,”
as §8, §6, §7

[6] = test system: Proteus mirabilis ATCC 12453; test: Broth microdilution MIC/MBC; format: cell-based; settings: ATCC12453
From the text: as §1
as §2, with “antimicrobials.” for “antimicrobials. All the used microbial cultures were first subcultured on nu-trient agar or Sabouraud agar at 35°C for 18-24 h or 30°C for 24-48 h for bacteria and fungi,”
as §8, §6, §7

[7] = test system: Pseudomonas aeruginosa ATCC 9027; test: Broth microdilution MIC/MBC; format: cell-based; settings: ATCC9027
From the text: as §1
as §2, with “antimicrobials.” for “antimicrobials. All the used microbial cultures were first subcultured on nu-trient agar or Sabouraud agar at 35°C for 18-24 h or 30°C for 24-48 h for bacteria and fungi,”
as §8, §6, §7

[8] = test system: Staphylococcus aureus ATCC 29213; test: Broth microdilution MIC/MBC; format: cell-based
From the text: as §1
as §2, with “antimicrobials.” for “antimicrobials. All the used microbial cultures were first subcultured on nu-trient agar or Sabouraud agar at 35°C for 18-24 h or 30°C for 24-48 h for bacteria and fungi,”
as §8, §6, §7

[9] = test system: Staphylococcus aureus ATCC 43300; test: Broth microdilution MIC/MBC; format: cell-based; settings: Staphylococcus aureus ATCC 43300 (MRSA)
From the text: as §1
as §2, with “antimicrobials.” for “antimicrobials. All the used microbial cultures were first subcultured on nu-trient agar or Sabouraud agar at 35°C for 18-24 h or 30°C for 24-48 h for bacteria and fungi,”
as §8, §6, §7

[10] = test system: Bordetella bronchiseptica ATCC 4617; test: Broth microdilution MIC/MBC; format: cell-based; settings: ATCC4617
From the text: as §1, §2, §3, §4, §5, §6, §7

[11] = test system: Enterococcus faecalis ATCC 29212; test: Broth microdilution MIC/MBC; format: cell-based
From the text: as §1, §2, §3, §4, §5, §6, §7

[12] = test system: Escherichia coli ATCC 25922; test: Broth microdilution MIC/MBC; format: cell-based; settings: ATCC25922
From the text: as §1, §2, §3, §4, §5, §6, §7

[13] = test system: Klebsiella pneumoniae ATCC 13883; test: Broth microdilution MIC/MBC; format: cell-based; settings: ATCC13883
From the text: as §1, §2, §3, §4, §5, §6, §7

[14] = test system: Candida albicans ATCC 10231; test: Broth microdilution MIC/MFC; format: cell-based; settings: ATCC10231, read-out: MIC
From the text: as §1, §2, §3, §4, §5, §6, §7

[15] = test system: Candida albicans ATCC 2091; test: Broth microdilution MIC/MFC; format: cell-based; settings: ATCC2091, read-out: MIC
From the text: as §1, §2, §3, §4, §5, §6, §7

[16] = test system: Candida glabrata ATCC 90030; test: Broth microdilution MIC/MFC; format: cell-based; settings: Nakaseomyces glabratus, ATCC90030, read-out: MIC
From the text: as §1, §2, §3, §4, §5, §6, §7

[17] = test system: Candida krusei ATCC 14243; test: Broth microdilution MIC/MFC; format: cell-based; settings: Pichia kudriavzevii, ATCC14243, read-out: MIC
From the text: as §1, §2, §3, §4, §5, §6, §7

[18] = test system: Candida parapsilosis ATCC 22019; test: Broth microdilution MIC/MFC; format: cell-based; settings: Lodderomyces parapsilosis, ATCC22019, read-out: MIC
From the text: as §1, §2, §3, §4, §5, §6, §7

- MIC [1]: 62.5 µg/mL (≈ 0.179 mM)
- MIC ([1]; ATCC6633, read-out: MIC): 62.5 µg/mL (≈ 0.179 mM)
Compound: CC1(C)S[C@@H]2[C@H](NC(=O)[C@H](N)c3ccccc3)C(=O)N2[C@H]1C(=O)O [APC, ampicillin, reference compound]

- MIC [2]: 0.98 µg/mL (≈ 0.00231 mM)
- MIC ([2]; ATCC10240, read-out: MIC): 0.98 µg/mL (≈ 0.00231 mM)
- MIC [3]: 0.24 µg/mL (≈ 0.000566 mM)
- MIC [1]: 15.62 µg/mL (≈ 0.0368 mM)
- MIC ([1]; ATCC6633, read-out: MIC): 15.6 µg/mL (≈ 0.0368 mM)
- MIC [4]: 31.25 µg/mL (≈ 0.0736 mM)
- MIC ([4]; ATCC10876, read-out: MIC): 31.2 µg/mL (≈ 0.0736 mM)
Compound: CO/N=C(\C(=O)N[C@@H]1C(=O)N2C(C(=O)O)=C(COC(N)=O)CS[C@H]12)c1ccco1 [CFX, cefuroxime, reference compound]

- MBC/MIC [5]: 1
- MIC ([5]; Salmonella enterica): 0.06 µg/mL (≈ 0.000181 mM)
Compound: O=C(O)c1cn(C2CC2)c2cc(N3CCNCC3)c(F)cc2c1=O [CIP, ciprofloxacin, reference compound]
- MBC ([5]; Salmonella enterica): 0.06 µg/mL (≈ 0.000181 mM)

- MBC/MIC [2]: > 2
- MIC ([2]; ATCC10240, read-out: MIC): 500 µg/mL (≈ 1.85 mM)
- MIC [6]: > 1000 µg/mL
- MIC [7]: > 1000 µg/mL
- MIC ([5]; Salmonella enterica): > 1000 µg/mL
- MBC/MIC [8]: > 1
- MIC ([8]; ATCC29213): 1000 µg/mL (≈ 3.7 mM)
- MBC/MIC [9]: > 1
- MIC [9]: 1000 µg/mL (≈ 3.7 mM)
- MIC [3]: > 1000 µg/mL
- MBC/MIC [1]: > 2
- MIC ([1]; ATCC6633, read-out: MIC): 500 µg/mL (≈ 1.85 mM)
- MIC ([4]; ATCC10876, read-out: MIC): > 1000 µg/mL
- MIC [10]: > 1000 µg/mL
- MBC/MIC [11]: > 1
- MIC ([11]; ATCC29212, read-out: MIC): 1000 µg/mL (≈ 3.7 mM)
- MIC [12]: > 1000 µg/mL
- MIC [13]: > 1000 µg/mL
- MIC [14]: > 1000 µg/mL
- MIC [15]: > 1000 µg/mL
- MIC [16]: > 1000 µg/mL
- MIC [17]: > 1000 µg/mL
- MIC [18]: > 1000 µg/mL
- melting point: 250 °C
Compound: Cc1ccccc1/C=N/NC(=O)c1ccc(O)cc1O [Compound 1, 2,4-dihydroxy-N-[(2-methylphenyl)methylidene]benzohydrazide]
- MBC ([2]; ATCC10240): > 1000 µg/mL
- MBC ([8]; ATCC29213): > 1000 µg/mL
- MBC [9]: > 1000 µg/mL
- MBC ([1]; ATCC6633): > 1000 µg/mL
- MBC ([11]; ATCC29212, read-out: MBC): > 1000 µg/mL
